What was measured:
[1] = PFI; assay type: physicochemical
Protocol: Dose response assays were performed in duplicate on WT PfPKG, HuPKGIα and a mock assay performed in the absence of enzyme (the counterscreen). Comparison of the PfPKG and HuPKGIα IC50 values gave information on selectivity and the counterscreen identified luminescent false positive compounds (see Materials and Methods). Cytotoxicity assays were also performed using a human hepatoma cell line (HepG2)[30]. […] This set of compounds was clustered by similarity using a complete-linkage algorithm and a threshold of 0.55[31]. A total of 79 clusters and 54 singletons were obtained.

[2] = molecular target: T1, WT PfPKG (Plasmodium falciparum, UniProt Q8I719); assay: Kinase Glo enzymatic assay, recombinant WT PfPKG; assay type: biochemical, P. falciparum
T1 construct: recombinant full length wild type (WT) PfPKG; His6 (N); host or cells: E. coli BL21
T1 sequence (Q8I719 whole entry): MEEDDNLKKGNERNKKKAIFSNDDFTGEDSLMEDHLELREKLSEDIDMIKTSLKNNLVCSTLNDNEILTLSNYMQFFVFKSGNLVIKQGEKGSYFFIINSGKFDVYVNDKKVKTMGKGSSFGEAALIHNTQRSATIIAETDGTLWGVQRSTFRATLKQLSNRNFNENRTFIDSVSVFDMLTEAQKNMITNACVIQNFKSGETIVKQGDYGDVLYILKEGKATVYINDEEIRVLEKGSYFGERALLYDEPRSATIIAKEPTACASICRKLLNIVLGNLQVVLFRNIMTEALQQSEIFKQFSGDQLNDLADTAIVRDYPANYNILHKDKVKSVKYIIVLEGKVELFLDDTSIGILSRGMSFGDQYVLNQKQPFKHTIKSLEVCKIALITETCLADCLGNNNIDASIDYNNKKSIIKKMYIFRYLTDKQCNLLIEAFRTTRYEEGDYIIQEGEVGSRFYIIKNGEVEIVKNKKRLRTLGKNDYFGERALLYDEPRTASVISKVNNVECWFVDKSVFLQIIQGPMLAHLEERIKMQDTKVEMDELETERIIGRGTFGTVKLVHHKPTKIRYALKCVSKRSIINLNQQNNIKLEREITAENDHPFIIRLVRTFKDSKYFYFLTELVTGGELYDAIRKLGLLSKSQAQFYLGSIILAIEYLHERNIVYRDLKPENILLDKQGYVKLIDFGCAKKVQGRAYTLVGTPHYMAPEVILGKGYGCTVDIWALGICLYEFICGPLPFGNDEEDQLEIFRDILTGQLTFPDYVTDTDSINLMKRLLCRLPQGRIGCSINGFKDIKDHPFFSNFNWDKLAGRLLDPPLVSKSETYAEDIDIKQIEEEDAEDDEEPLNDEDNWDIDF
Protocol: To identify new PKG inhibitor scaffolds, the 1.7 million GlaxoSmithKline Full Diversity collection was tested at a single final concentration of 10 μM against recombinant full length wild type (WT) PfPKG using a Kinase Glo-based assay (Promega). The results gave a robust Z′ mean value of 0.85. At an average statistical cut-off of 30%, 20,174 primary hits were identified with an overall hit rate of 1%. Fresh samples of these primary hits were tested in duplicate against WT PfPKG and also against human PKGIα (HuPKGIα) (Supplementary Fig. 1) at a final concentration of 10 μM (confirmation step).
Protein production was outsourced to the Division of Signal Transduction Therapy, University of Dundee. Briefly, the pTRChis expression vectors (Invitrogen) containing an N-terminally His6-tagged PfPKG wildtype and T618Q were used to transform BL21 cells (protocol adapted from[23]). The cells were grown at 37 °C until the OD600 was 0.4–0.6 then the temperature was reduced to 15 °C and the cells were induced with 250 µM IPTG and grown for a further 16–18 hours before harvesting. The His6-PfPKG was purified on Cobalt agarose followed by gel filtration and the protein was dialysed into 25 mM Hepes pH 7.5, 0.1 mM EGTA, 150 mM NaCl, 50% glycerol and 2 mM DTT.
Initial optimization of the PKG assay was performed manually in 384-well plates and analysed with GraFit 7. The buffer for all assays was 25 mM HEPES pH 7.3 (GIBCO), 10 mM MgCl2 (Sigma), 2 mM DTT (Sigma), 0.01 mM cGMP (Sigma), 0.1 mg/ml BSA (Ambion). Enzymatic activity was tested using a luminescence-based kit (Promega KinaseGlo). Addition of the first reagent depletes the unused ATP and addition of the second reagent converts ADP (product of the kinase reaction) to ATP, which is then measured through a luciferin/luciferase reaction. The amount of luminescence is directly proportional to ATP turnover by the kinase. The kit was chosen because it can be miniaturized to small volumes (i.e. 4 µl) in 1536-well plates, for use in HTS.
We used PKA peptide substrate (SCP0212, Sigma-Aldrich) for WT and TQ PfPKG, dissolved in milliQ water at a final concentration of 5 mM, and Long S6 peptide substrate (produced at the University of Dundee, sequence […]) for HuPKGIα, dissolved in water at a final concentration of 30 mM.
We calculated the Michaelis-Menten (Km) constant for ATP and peptide substrate (PKA or Long S6) for all enzymes using GraphPad Prism (Supplementary Figs 2 and 3 and Supplementary Table 3). In order to identify different types of PKG inhibitors, including ATP competitive or non-competitive inhibitors, as well as inhibitors that bind to the peptide substrate pocket, we performed all assays using ATP and peptide substrate at a concentration equal to the Km. We also determined enzyme activity by calculating ATP turnover (Kcat) over the Km (Supplementary Table 3). The Kcat was calculated as (Vmax*slope)/[E] where Vmax is the maximum velocity and [E] is the concentration of the enzyme.
The plates containing the compounds were prepared at GSK in Upper Providence or Stevenage. Compounds were tested at a single final concentration of 10 µM or in a dose response with a range of concentrations starting from 100 μM to 1.6 nM (1 in 3 serial dilutions). Compounds were dispensed in the plates at the required concentration in a 40 nl volume. All plates (1536-well white Greiner) contained 40 nl of DMSO in lanes 11 and 12 (control 1, 100% enzyme activity) and were empty in lanes 35 and 36 (control 2, 0% enzyme activity). The plates were removed from −20 °C 1 hour before starting the assay. Using a Multidrop Combi dispenser (Thermo Scientific), 2 µl of the buffer containing ATP and the substrate were added to all wells then 2 µl of buffer only were added to column 35 and 36. Finally 2 µl of buffer containing the enzyme were dispensed in all the plate wells except for lanes 35 and 36. […]

[3] = WT PfPKG (μM), recombinant WT PfPKG

SMILES: CCn1cc(-c2ccncn2)c(-c2cccc(NS(=O)(=O)c3cc(F)ccc3F)c2)n1 [Compound 2]
- PFI [1]: 8.0
- IC50 [2, 3]: 0.041 µM

SMILES: Cc1ccc(S(C)(=O)=O)cc1Nc1nccc(-c2sc(CC(N)=O)nc2-c2ccccc2)n1 [Compound 3]
- PFI [1]: 7.3
- IC50 [2, 3]: 0.013 µM

SMILES: CC(C)(CN)c1cc(-c2ccc(Cl)c(O)c2)c(-c2ccncc2)o1 [Compound 4]
- PFI [1]: 6.1
- IC50 ([2]; IC50 (WT PfPKG activity), Figure 3, most scored compound of each cluster and singletons): 0.002 µM
- IC50 [2, 3]: 0.0017 µM

SMILES: CCn1c(-c2nonc2N)nc2c(-c3ccccc3)ncc(CN(C)C3CCN(C)CC3)c21 [Compound 5]
- PFI [1]: 7.7
- IC50 [2, 3]: 0.039 µM

SMILES: CNS(=O)(=O)c1cccc(Nc2ccnc(Nc3cccc(S(=O)(=O)NC)c3)n2)c1 [Compound 6]
- PFI [1]: 6.4
- IC50 [2, 3]: 0.07 µM

SMILES: COc1ccc(-c2c(-c3cccc(C(=O)N4CCN(C)CC4)c3)oc3ncnc(N)c23)cc1 [Compound 7]
- PFI [1]: 6.6
- IC50 [2, 3]: 0.01 µM

SMILES: COc1ccc(CCNC(=O)CSc2ncnc3[nH]ncc23)cc1OC [Compound 8]
- PFI [1]: 5.3
- IC50 [2, 3]: 0.104 µM

SMILES: COc1cccc(Nc2nc(-c3ccncc3)cc(N3CCN(C)CC3)n2)c1 [Compound 9]
- PFI [1]: 6.6
- IC50 [2, 3]: 0.027 µM

SMILES: COc1cc(CS(C)(=O)=O)ccc1Nc1nc(Nc2cc(F)ccc2C(N)=O)c2cc[nH]c2n1 [Compound 10]
- PFI [1]: 7.3
- IC50 [2, 3]: 0.05 µM

SMILES: O=C(N[C@@H](CO)c1ccccc1)c1ccc2cncc(-c3cn[nH]c3)c2n1 [Compound 11]
- PFI [1]: 5.9
- IC50 [2, 3]: 0.094 µM

SMILES: NCCNCc1ccc(-c2cc3ccncc3cc2OC2CCNCC2)s1 [Compound 12]
- PFI [1]: 2.6
- IC50 [2, 3]: 0.324 µM

SMILES: CNCCOc1cnc(-c2ccoc2C)c(-c2ccc3cnccc3c2)c1 [Compound 13]
- PFI [1]: 6.1
- IC50 [2, 3]: 0.007 µM

SMILES: O=C(c1cccc(OCc2cccnc2)c1)N1CCc2sccc2C1CN1CCCCC1 (stereo not shown) [Compound 14]
- PFI [1]: 6.9
- IC50 [2, 3]: 0.036 µM

SMILES: Nc1ccc2c(-c3ccncc3)c(-c3ccc(Cl)c(O)c3)[nH]c2n1 [Compound 15]
- PFI [1]: 6.1
- IC50 [2, 3]: 0.022 µM

SMILES: Nc1nc(Nc2cccc3cnccc23)nn1C(=O)C1CCCCC1 [Compound 16]
- PFI [1]: 7.6
- IC50 [2, 3]: 0.09 µM
